Assay results: patent US20250051344A1, “BIFUNCTIONAL SELECTIVE DEGRADERS OF SMARCA2 AND THERAPEUTIC USES THEREOF” (Nurix Therapeutics, Inc., priority 2023, published 2025)

Experiments:
SMARCA4 = target: T1, SMARCA4 (Homo sapiens, UniProt P51532); experiment: Cellular degradation assay, SMARCA4 (Table 1); type: cell-based
T1 construct: endogenous in cells

SMARCA2 = target: T2, SMARCA2 (Homo sapiens, UniProt P51531); experiment: SMARCA2 Cellular Degradation Assay (Western blot analysis on Jess platform); type: cell-based; details: for DC50 / Dmax: cellular degradation; for Fold Selectivity SMARCA4/2: ratio DC50 SMARCA4 / DC50 SMARCA2
T2 construct: endogenous in cells
Outline: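 SMARCA2 remaining is given as percent of vehicle control, using actin-normalized, background-corrected electropherogram areas. Measurement was by Jess capillary immunoassay (anti-SMARCA2 with anti-β-actin) on 5 μg protein from RIPA/SDS lysates of tumor-derived cells.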

T1 sequence (P51532 whole entry, species assumed): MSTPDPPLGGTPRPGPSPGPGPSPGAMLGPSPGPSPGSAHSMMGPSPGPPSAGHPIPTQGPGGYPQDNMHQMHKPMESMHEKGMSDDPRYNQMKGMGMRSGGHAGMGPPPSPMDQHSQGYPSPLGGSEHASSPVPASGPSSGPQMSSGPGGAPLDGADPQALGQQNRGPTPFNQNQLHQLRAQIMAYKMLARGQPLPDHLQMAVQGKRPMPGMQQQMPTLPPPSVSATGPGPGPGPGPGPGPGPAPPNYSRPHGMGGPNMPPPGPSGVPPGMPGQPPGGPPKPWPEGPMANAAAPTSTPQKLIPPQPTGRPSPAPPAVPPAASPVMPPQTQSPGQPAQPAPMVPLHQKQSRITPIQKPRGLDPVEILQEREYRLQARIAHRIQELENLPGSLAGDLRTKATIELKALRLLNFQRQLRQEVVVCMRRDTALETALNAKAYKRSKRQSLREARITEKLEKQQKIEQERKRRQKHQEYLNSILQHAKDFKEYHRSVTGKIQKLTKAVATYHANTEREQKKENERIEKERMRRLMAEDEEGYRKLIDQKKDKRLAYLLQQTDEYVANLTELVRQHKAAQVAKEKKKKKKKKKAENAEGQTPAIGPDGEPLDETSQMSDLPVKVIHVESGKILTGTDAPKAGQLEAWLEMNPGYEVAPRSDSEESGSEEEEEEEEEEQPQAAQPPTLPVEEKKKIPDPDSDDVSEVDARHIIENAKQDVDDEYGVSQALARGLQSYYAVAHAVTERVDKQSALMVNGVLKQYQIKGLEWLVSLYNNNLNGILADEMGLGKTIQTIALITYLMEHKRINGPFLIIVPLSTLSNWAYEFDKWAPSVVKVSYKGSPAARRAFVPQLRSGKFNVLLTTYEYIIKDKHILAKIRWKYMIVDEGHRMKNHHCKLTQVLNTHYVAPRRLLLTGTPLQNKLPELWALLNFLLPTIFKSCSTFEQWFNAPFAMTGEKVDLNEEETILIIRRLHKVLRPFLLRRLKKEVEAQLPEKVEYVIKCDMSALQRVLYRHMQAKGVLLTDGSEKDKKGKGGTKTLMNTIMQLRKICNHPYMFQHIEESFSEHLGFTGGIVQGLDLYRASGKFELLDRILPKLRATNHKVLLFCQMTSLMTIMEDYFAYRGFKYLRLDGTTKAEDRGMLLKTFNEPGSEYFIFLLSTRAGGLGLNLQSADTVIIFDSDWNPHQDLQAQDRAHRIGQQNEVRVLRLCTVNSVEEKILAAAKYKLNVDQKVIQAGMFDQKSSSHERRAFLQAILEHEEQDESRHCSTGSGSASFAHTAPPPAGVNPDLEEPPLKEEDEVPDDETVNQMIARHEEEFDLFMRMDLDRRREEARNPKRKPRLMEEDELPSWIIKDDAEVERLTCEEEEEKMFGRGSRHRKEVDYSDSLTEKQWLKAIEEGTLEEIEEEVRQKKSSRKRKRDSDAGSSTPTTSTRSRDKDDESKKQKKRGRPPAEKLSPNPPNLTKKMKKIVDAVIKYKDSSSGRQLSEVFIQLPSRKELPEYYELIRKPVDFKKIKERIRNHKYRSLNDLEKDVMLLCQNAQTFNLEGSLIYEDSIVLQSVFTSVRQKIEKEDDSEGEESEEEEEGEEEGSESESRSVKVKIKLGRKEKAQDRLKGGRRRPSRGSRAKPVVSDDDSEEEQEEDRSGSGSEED
T2 sequence (P51531 whole entry, species assumed): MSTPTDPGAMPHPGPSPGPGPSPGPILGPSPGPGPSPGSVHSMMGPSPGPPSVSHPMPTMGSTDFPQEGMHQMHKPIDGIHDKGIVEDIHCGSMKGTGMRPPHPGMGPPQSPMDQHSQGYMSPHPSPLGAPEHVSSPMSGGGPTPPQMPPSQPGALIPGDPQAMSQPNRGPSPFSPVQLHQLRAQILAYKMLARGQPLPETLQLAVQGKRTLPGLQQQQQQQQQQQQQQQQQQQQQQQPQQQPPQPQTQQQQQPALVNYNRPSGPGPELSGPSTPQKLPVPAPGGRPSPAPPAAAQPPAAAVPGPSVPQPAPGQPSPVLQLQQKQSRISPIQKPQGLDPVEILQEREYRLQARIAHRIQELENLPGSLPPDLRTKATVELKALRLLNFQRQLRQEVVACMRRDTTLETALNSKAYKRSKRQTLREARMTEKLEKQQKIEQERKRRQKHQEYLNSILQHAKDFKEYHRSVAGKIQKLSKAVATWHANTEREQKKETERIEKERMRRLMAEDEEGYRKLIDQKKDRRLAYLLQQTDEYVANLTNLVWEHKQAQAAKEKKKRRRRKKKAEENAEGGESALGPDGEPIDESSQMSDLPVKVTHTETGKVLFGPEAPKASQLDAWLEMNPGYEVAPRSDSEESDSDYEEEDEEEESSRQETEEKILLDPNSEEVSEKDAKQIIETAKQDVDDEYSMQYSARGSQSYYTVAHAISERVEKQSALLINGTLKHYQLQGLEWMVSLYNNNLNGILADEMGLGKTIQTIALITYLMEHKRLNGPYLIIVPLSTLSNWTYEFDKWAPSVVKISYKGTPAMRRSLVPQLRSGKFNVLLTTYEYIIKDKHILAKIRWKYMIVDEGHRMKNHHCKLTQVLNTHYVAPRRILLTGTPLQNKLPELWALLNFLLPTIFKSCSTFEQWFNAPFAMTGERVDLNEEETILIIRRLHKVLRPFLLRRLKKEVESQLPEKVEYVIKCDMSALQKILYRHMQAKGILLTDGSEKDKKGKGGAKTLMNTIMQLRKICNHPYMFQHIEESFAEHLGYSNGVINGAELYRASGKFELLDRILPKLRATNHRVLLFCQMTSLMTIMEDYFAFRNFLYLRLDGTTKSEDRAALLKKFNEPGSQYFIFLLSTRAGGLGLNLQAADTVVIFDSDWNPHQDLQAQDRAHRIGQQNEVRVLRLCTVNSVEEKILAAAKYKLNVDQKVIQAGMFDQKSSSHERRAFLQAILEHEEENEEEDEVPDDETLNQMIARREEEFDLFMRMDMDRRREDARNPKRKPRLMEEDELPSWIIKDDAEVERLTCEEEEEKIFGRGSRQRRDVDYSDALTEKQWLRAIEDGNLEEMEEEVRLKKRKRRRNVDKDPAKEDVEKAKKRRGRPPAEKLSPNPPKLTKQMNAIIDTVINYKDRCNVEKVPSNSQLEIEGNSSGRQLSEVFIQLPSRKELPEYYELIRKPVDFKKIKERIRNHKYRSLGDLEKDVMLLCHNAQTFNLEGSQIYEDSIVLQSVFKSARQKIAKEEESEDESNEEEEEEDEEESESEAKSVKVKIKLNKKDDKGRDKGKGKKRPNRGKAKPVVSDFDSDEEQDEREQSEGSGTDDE

COC1(C(=O)N(C)C2CCN(CCC3CCN(c4cccc5c4n(C)c(=O)n5C4CCC(=O)NC4=O)CC3)CC2)CCN(c2cnnc(-c3ccccc3O)c2)CC1 (racemic) [Example 68, rac-N-(1-(2-(1-(1-(2,6-dioxopiperidin-3-yl)-3-methyl-2-oxo-2,3-dihydro-1H-benzo[d]imidazol-4-yl)piperidin-4-yl)ethyl)piperidin-4-yl)-1-(6-(2-hydroxyphenyl)pyridazin-4-yl)-4-methoxy-n-methylpiperidine-4-carboxamide]
DC50 (SMARCA4): 19.2 nM | Dmax (SMARCA4): 66.9% | DC50 (SMARCA2): 0.57 nM | Dmax (SMARCA2): 93.2% | Fold Selectivity SMARCA4/2 (SMARCA2): 34

COC1(C(=O)N2CCC3(CC2)CN(CC2CCN(c4ccc([C@H]5CCC(=O)NC5=O)cc4)CC2)C3)CCN(c2cnnc(-c3ccccc3O)c2)CC1 [Example 120, (r)-3-(4-(4-((7-(1-(6-(2-hydroxyphenyl)pyridazin-4-yl)-4-methoxypiperidine-4-carbonyl)-2,7-diazaspiro[3.5]nonan-2-yl)methyl)piperidin-1-yl)phenyl)piperidine-2,6-dione]
Dmax (SMARCA4): 50% | DC50 (SMARCA2): 7.6 nM | Dmax (SMARCA2): 78.4% | Fold Selectivity SMARCA4/2 (SMARCA2): 1316

CCN(C(=O)C1(c2ccccc2)CCN(c2cnnc(-c3ccccc3O)c2)CC1)C1CCN(CC2CCN(c3ccc([C@H]4CCC(=O)NC4=O)cc3)CC2)CC1 [Example 184, N-{1-[(1-{4-[(3R)-2,6-dioxopiperidin-3-yl]phenyl}piperidin-4-yl)methyl]piperidin-4-yl}-N-ethyl-1-[6-(2-hydroxyphenyl)pyridazin-4-yl]-4-phenylpiperidine-4-carboxamide]
DC50 (SMARCA4): 37.6 nM | Dmax (SMARCA4): 80.7% | DC50 (SMARCA2): 4.88 nM | Dmax (SMARCA2): 91.3% | Fold Selectivity SMARCA4/2 (SMARCA2): 8

O=C1CCC(c2ccc(N3CCC(CN4CCN(C(=O)C5(c6ccccc6)CCN(c6cnnc(-c7ccccc7O)c6)CC5)CC4)CC3)cc2)C(=O)N1 (racemic) [Example 6, rac-(3R)-3-(4-{4-[(4-{1-[6-(2-hydroxyphenyl)pyridazin-4-yl]-4-phenylpiperidine-4-carbonyl}piperazin-1-yl)methyl]piperidin-1-yl}phenyl)piperidine-2,6-dione]
Dmax (SMARCA4): 31.5% | DC50 (SMARCA2): 121 nM | Dmax (SMARCA2): 63.6% | Fold Selectivity SMARCA4/2 (SMARCA2): 82.86

C[C@@H](C1CCN(c2ccc([C@H]3CCC(=O)NC3=O)cn2)CC1)N1CC2(CN(C(=O)C3(c4ccccc4)CCN(c4cnnc(-c5ccccc5O)c4)CC3)C2)C1 (racemic) [Example 141, (3RS&)-3-(6-{4-[(1RS)-1-(6-{1-[6-(2-hydroxyphenyl)pyridazin-4-yl]-4-phenylpiperidine-4-carbonyl}-2,6-diazaspiro[3.3]heptan-2-yl)ethyl]piperidin-1-yl}pyridin-3-yl)piperidine-2,6-dione]
DC50 (SMARCA4): 34.9 nM | Dmax (SMARCA4): 71.5% | DC50 (SMARCA2): 6.59 nM | Dmax (SMARCA2): 87% | Fold Selectivity SMARCA4/2 (SMARCA2): 5

O=C1CCC(c2ccc(OCC3CCN(CC4CCN(C(=O)C5(c6ccccc6)CCN(c6cnnc(-c7ccccc7O)c6)CC5)CC4)CC3)cc2)C(=O)N1 (racemic) [Example 11, rac-(3R)-3-[4-({1-[(1-{1-[6-(2-hydroxyphenyl)pyridazin-4-yl]-4-phenylpiperidine-4-carbonyl}piperidin-4-yl)methyl]piperidin-4-yl}methoxy)phenyl]piperidine-2,6-dione]
Dmax (SMARCA4): 38.9% | DC50 (SMARCA2): 21.2 nM | Dmax (SMARCA2): 69.1% | Fold Selectivity SMARCA4/2 (SMARCA2): 472.68

O=C1CC[C@H](c2ccc(N3CCC(CNC4CC5CCCC(C4)C5NC(=O)C4(c5ccccc5)CCN(c5cnnc(-c6ccccc6O)c5)CC4)CC3)cc2)C(=O)N1 (stereo partly drawn) [Example 49, N-(3-{[(1-{4-[(3R)-2,6-dioxopiperidin-3-yl]phenyl}piperidin-4-yl)methyl]amino}bicyclo[3.3.1]nonan-9-yl)-1-[6-(2-hydroxyphenyl)pyridazin-4-yl]-4-phenylpiperidine-4-carboxamide]
DC50 (SMARCA4): 172 nM | Dmax (SMARCA4): 59.8% | DC50 (SMARCA2): 26.4 nM | Dmax (SMARCA2): 76.9% | Fold Selectivity SMARCA4/2 (SMARCA2): 6.52
